Data as given in US20190167640A1, “METHODS FOR TREATMENT OF MUSCULAR DYSTROPHIES” (Akashi Therapeutics, Inc., priority 2013, published 2019).
“Also recorded” adds a separate entry of the source.

What was measured:
[1] = test system: diaphragm strips of exercised mdx mice; assay: Isometric contraction of diaphragm strips after in vivo treatment; conditions: for twitch tension of diaphragm strips: exercised mdx mice, Compound (I) 30 mg/kg s.c., nandrolone 5 mg/kg s.c., PDN 1 mg/kg i.p., 6 days/week, 4-6 weeks; for fatigue of diaphragm (drop of force after 5 repetitive tetani) / tetanic force of diaphragm: same treatments; for fatigue of diaphragm (drop of force after 5 repetitive tetani): 5 tetani at 100 Hz, 5 sec intervals; for tetanic force of diaphragm: vehicle-treated exercised mdx groups pooled together (FIG. 2B)
Method: Compound (I) and nandrolone were dissolved in 10% Ethanol/90% Corn Oil (Sigma-Aldrich) in order to have the final dosage needed in the volume of 0.1 ml/10 g body weight. PDN (from the commercial formulation URBASON) was diluted sterile water for injection (0.1 ml/10 g body weight). 40 mdx mice 5-6 weeks old (Charles River Italy for Jackson Lab) were first (at the beginning of the exercise/treatment period (Time 0)) randomized in groups homogeneous for body weight, fore limb strength and normalized force (fore limb strength/body weight), as follows: • 7 SEDENTARY MDX+VEHICLE (ethanol and corn oil) • 7 UNTREATED EXERCISED MDX+VEHICLE (ethanol and corn oil) • 9 EXERCISED MDX+Compound (I) 30 mg/kg • 8 EXERCISED MDX+Nandrolone 5 mg/kg • 3 EXERCISED MDX+VEHICLE (sterile water) • 6 EXERCISED MDX+PDN 1 mg/kg
The duration of the treatment was 4-6 weeks. At the end of 4 weeks, 34 mice remained on the protocol, as follows: • 7 SEDENTARY MDX+VEHICLE (ethanol and corn oil) • 7 UNTREATED EXERCISED MDX+VEHICLE (ethanol and corn oil) • 6 EXERCISED MDX+Compound (I) 30 mg/kg • 5 EXERCISED MDX+Nandrolone 5 mg/kg • 3 EXERCISED MDX+VEHICLE (sterile water) • 6 EXERCISED MDX+PDN 1 mg/kg
(§1) The chronic exercise consisted of 30 min running on horizontal treadmill at 12 m/min twice a week. Drug treatment started one day before the exercise protocol. At least 4 weeks of exercise were performed before starting the ex vivo experiments. In vivo parameters were monitored weekly throughout. Age of the mice at the time of ex-vivo experiments: 9-12 weeks. The effectiveness of the test compounds was then evaluated ex vivo for: • Mechanical properties of EDL muscle and diaphragm strips by isometric contraction • Mechanical threshold of EDL muscle, i.e. the voltage threshold for fiber contraction, as an index of excitation-contraction coupling mechanism and calcium homeostasis (two microelectode “point” voltage clamp method) • Cable parameters and macroscopic ionic conductance (two microelectrode current clamp recordings) • Spectrophotometric determination of plasma level of creatine kinase (CK), as an index of sarcolemmal damage, lactate dehydrogenase (LDH) as an index of metabolic sufferance, reactive oxygen species, as a marker of oxidative stress • Morphometric analysis of gastrocnemious (GC) muscle and diaphragm
Standard isometric contraction measurements on both EDL muscle and diaphragm strips were obtained by electric field stimulation via two axial platinum wires. For each preparation, a preliminary stabilization procedure (for proper temperature equilibration and relaxation after handling) was followed by the determination of the optimal resting length, i.e. the resting tension that allowed the maximal tension to be elicited by 40V depolarizing steps of 0.2ms duration. The preparations were then allowed to rest for about 30 min before starting the recording procedure.
Twitch tension: 5 single twitches elicited by pulses of 40 V and 0.2 ms (every 30 sec)→determination of maximal twitch tension and contraction kinetic (time to peak and half relaxation time);
Force frequency curve: 450 ms trains of 0.2 ms 40V pulses from 10 to 140 Hz→determination of maximal tetanic tension and frequency for half-maximal activation (Hz50) Fatigue: 5 tetani at 100 Hz (450 ms) and 5 sec intervals→determination of % drop of tension

[2] = test system: exercised mdx mice; assay: Spectrophotometric determination of plasma creatine kinase, lactate dehydrogenase and reactive oxygen species; format: in vivo; conditions: same treatments
Method: as §1
A marked elevation of plasma creatine kinase is a typical diagnostic marker of muscular dystrophy. In parallel an increase in lactate dehydrogenase is also observed as a sign of metabolic sufferance while an increase on reactive oxygen species can occur as a result of ongoing oxidative stress. Generally, these biochemical indices are further aggravated by the exercise protocol. However, in the present study all the three parameters CK, LDH and ROS were particularly altered in the sedentary mdx mice and therefore no remarkable effect of exercise was observed.

[3] = test system: EDL myofibers of exercised mdx mice; assay: Cable parameters and macroscopic ionic conductance of EDL myofibers (two microelectrode current clamp); format: in vivo; conditions: Compound (I) 30 mg/kg, nandrolone 5 mg/kg, PDN 1 mg/kg, 6 days/week, 4-6 weeks
Method: as §1
Passive cable properties are calculated for the spatial and temporal changes of membrane potential in response to a hyperpolarizing square current pulses. […]

[4] = test system: EDL myofibers of exercised mdx mice; assay: Mechanical threshold of EDL muscle (two microelectrode point voltage clamp); format: in vivo; conditions: for mechanical threshold: potential (voltage threshold) for fiber contraction of EDL myofibers: Compound (I) 30 mg/kg, nandrolone 5 mg/kg, PDN 1 mg/kg, 6 days/week, 4 weeks, all pulse durations; for rheobase voltage of EDL muscles / time constant to reach the rheobase, EDL myofibers: same treatments; for rheobase voltage of EDL muscles: calculated from fit of strength-duration curve; for time constant to reach the rheobase, EDL myofibers: from fit of strength-duration curve
Method: as §1
Mechanical threshold (MT) is an electrophysiological index of excitation contraction-coupling and of calcium homeostasis (De Luca et al., JPET 2003; Fraysse et al., Neurobiol. Dis., 2004). The application of depolarizing voltage steps of increasing durations shifts the contraction for fiber contraction toward more negative potential until a constant rheobase voltage is reached. The rheobase voltage represents the voltage at which the calcium that is released from the sarcoplasmis reticulum and the calcium reuptaken are at the steady-state. A shift of rheobase voltage toward more negative potential, as occurring in dystrophic mdx EDL myofibers, is indicative of more calcium being available for contraction, either resulting from greater release or slower reuptake or higher basal cytosolic levels.
In FIG. 30A, the data, expressed as the means±S.E.M. from 14 to 30 values from 2 to 5 preparations, show the voltages for the contraction of EDL myofibres (mechanical threshold) at increasing pulse duration in wild-type mice (WT, black circles) and in mdx mice treated with either vehicle (corn oil and water; Mdx+VTOT, white circles), 30 mg/kg Compound (I) (white triangles), 5 mg/kg nandrolone (upside-down black triangles) or 1 mg/kg PDN (white rhombus). The drugs were given 6 days per week. […] For some data points, the standard error bar is not visible because it is smaller than the symbol size. In FIGS. 30B and 30C, the rheobase voltage, in mV and the time constant, in ms, with relative standard errors, have been calculated from the fit of data points of the voltage-duration curves in A. In FIG. 30D, the total resting membrane ionic conductances (gm) in μS/cm^2 of EDL muscle fibres of the same experimental groups described in A are shown. The bars represent the means±SEM from the number of 3-5 prep/25-37 fibres. For each parameter, the significant differences between groups were evaluated using ANOVA for multiple comparisons (F values) and the Bonferroni t-test post hoc correction. Significant differences were found for rheobase voltage (F>4; p<0.003) and gm (F>7; p<0.0002).
In FIG. 31A, the data, expressed as the means±S.E.M. from 27 to 41 values from 3 preparations, show the voltages for the contraction of EDL myofibres (mechanical threshold) at increasing pulse duration in wild type mice (WT, black circles) and in mdx mice treated with either corn oil (Mdx+V1, white circles) or Compound (I) at 0.3 (white square), 3 (black square) or 30 mg/kg (white triangles). The drugs were given 6 days per week. […] For some data points, the standard error bar is not visible because it is smaller than the symbol size. […]

[5] = test system: EDL muscle of exercised mdx mice; assay: Isometric and eccentric contraction of EDL muscle after in vivo treatment; conditions: same treatments; for fatigue of EDL (drop during the first 5 tetani): tetani at 5 sec intervals
[6] = test system: diaphragm and GC muscle of exercised mdx mice; assay: Histology and morphometric analysis of gastrocnemius (GC) muscle and diaphragm; format: in vivo; conditions: preliminary morphometric analysis (FIG. 23)
Method: as §1
Representative pictures of histology profile of diaphragm and GC muscles in the various experimental conditions are shown in FIG. 22.

SMILES | twitch tension of diaphragm strips [1] | fatigue of diaphragm (drop of force after 5 repetitive tetani) [1] | tetanic force of diaphragm [1] | lactate dehydrogenase (LDH) [2] | membrane resistance (Rm) and total membrane ionic conductance (gm) of EDL myofibers [3] | mechanical threshold: potential (voltage threshold) for fiber contraction of EDL myofibers [4] | mechanical threshold: voltage threshold values of EDL myofibres ([4]; Compound (I) at 0.3, 3 or 30 mg/kg, 6 days per week, second study (up to 12 weeks), vs vehicle-treated mdx) | rheobase voltage of EDL muscles [4] | time constant to reach the rheobase, EDL myofibers [4] | frequency for half-maximal activation (Hz50) of EDL [5] | twitch/tetanus ratio of EDL [5] | creatine kinase (CK) [2] | fiber area of both normal and centronucleated fibers [6] | fatigue of EDL (drop during the first 5 tetani) [5] | twitch tension of EDL [5]
CN1C(=O)N(c2ccc(C#N)c(C(F)(F)F)c2)C(=O)[C@@]1(CO)c1ccccc1 [Compound (I)] | greater than those of untreated ones and no more significantly different with respect to those of weight | protection was observed | significantly greater than those of untreated, although still lower than weight ones | slight, but not significant reduction | effects comparable to that of PDN | significant shift of the potential for fiber contraction toward weight values; also recorded: significantly more positive | significantly more positive | almost overlapping that of weight | remarkably shorter than those of untreated exercised and not significantly different with respect to that of weight | no significant effects | no effect |  |  |  | 
C[C@H]1C[C@@H]2[C@H]([C@@H](O)C[C@@]3(C)[C@H]2CC[C@]3(O)C(=O)CO)[C@@]2(C)C=CC(=O)C=C12 [PDN, α-methyl-prednisolone] | the two anabolic compounds exerted a greater protection than PDN | protection was observed | significantly greater than those of untreated, although still lower than weight ones | lack of effect | effect consistent with that observed in previous studies | less effective than Compound (I); also recorded: significantly more positive |  | values intermediate between untreated mdx and weight | effect of Compound (I) on this parameter was greater than that of nandrolone and PDN | no significant effects | slight but not significant decrease | lack of effect | increase | partial recovery | 
C[C@]12CC[C@H]3[C@@H](CCC4=CC(=O)CC[C@@H]43)[C@@H]1CC[C@@H]2O [nandrolone] | greater than those of untreated ones and no more significantly different with respect to those of weight |  | significantly greater than those of untreated, although still lower than weight ones |  |  | less effective than Compound (I); also recorded: significantly more positive |  | values intermediate between untreated mdx and weight | effect of Compound (I) on this parameter was greater than that of nandrolone and PDN | no significant effects | no effect |  | increase | partial recovery | tendency toward an increase
